Measured values published in patent US9415034B2, “Inhibitors and enhancers of uridine diphosphate-glucuronosyltransferase 2B (UGT2B)” (NATIONAL DEFENSE MEDICAL CENTER, priority 2005, dated 2016).

System: UGT2B
Experiment: in vitro
Description: In the following experiment, 27 different kinds of CHEs and 10 different excipients were used as UGT2B inhibitor in this invention. These CHEs are pure compounds available commercially, and were purchased from Sigma Chemical Co., Nacalai Tesque (Kyoto, Japan) and Indofine Chemical Co., Inc. (Somerville, N.J.). These UGT2B inhibitors are dissolved in alcohol at the concentration of 1, 10, 100 μM for the following experiment.
These excipients are dissolved in water and make up to 0.5%, 5%, 50% (wt %, w/v) for the following experiment. (Note: BRIJ is a registered trademark of ICI Americas, Inc.; Pluronic is a registered trademark of BASF Corporation.)
The Sprague-Dawley male rats, weighted 300-400 g are used as model animals in these experiments. The microsome is prepared as follows: • i. Sacrifice a rat after 12-16 hours fasting, take its liver; wipe dry the liver and weigh it. • ii. Add 300% (by volume) of cold 0.3M sucrose solution, and homogenize the liver. • iii. Centrifuge the homogenized liver suspension at 9000×g speed (KS-800, Kubota, made in Japan) for 10 min at 4° C. Collect the supernatant. • iv. Centrifuge the supernatant at 105,000×g speed (L8-60M, Beckman, made in USA) for 60 min at 4° C. • v. Remove the supernatant, add 0.3M sucrose (of the same volume) and repeat the homogenization. The homogenized liver suspension is the microsome. Store the microsome at −70° C.
Thaw the microsome before use. Add 5 μl/ml BRIJ®35 (Fisher et al. 2000, Drug Metabolism & Disposition. 28(5):560-6) into microsome by a ratio of microsome:BRIJ®35=8:1 (v/v).
The protein amount is determined as follows: • i. Take 0.1 ml microsome and dilute to 5 ml 0.85% NaCl (50-fold dilution, v/v). Take 0.2 ml of the diluted microsome and place it in a capped test tube (triple experiments). Separately, replacing microsome with 0.2 ml NaCl as the control. • ii. Add 2.2 ml Biuret regent (SIGMA, 690-A) into each test tube, mix well and store at room temperature for 10 min. • iii. Add 0.1 ml folin regent (SIGMA, 690-A), mix immediately, and store at room temperature for 30 min. Measure the absorbance at 550 nm wave length within the 30 min. Measure the concentration of protein in microsome based on the standard curve generated by various bovine albumin concentration and absorbance. 4. The Measurement of the Inhibition of UGT2B Activity in vitro • i. […] Mix solution (A) and 17 μl solution (B) thoroughly, place in a 37° C. water bath and shake at 125 rpm for 60 min. • iii. Add 1 ml ACN to interrupt the reaction. • iv. Centrifuge at 130,000×g speed at 4° C. for 5 min, and • v. […] 5.
Set the Ultra-violet detector's (SPD-10A, Shimadzu, Kyoto, made in Japan) wave length to 210 nm.
Those CHEs are commercially available pure compounds, acquired from Sigma Chemical Co., Nacalai Tesque (Kyoto, Japan) and […] (Somerville, N.J.). Their categories, names, sources, and chemical compositions are described in Table 5.

[1] = male, Sprague-Dawley, rat, % Inhibition (Mean ± SD)
[2] = male, Sprague-Dawley, rat, 60 min, 8.5 μM
[3] = male, Sprague-Dawley, rat, 60 min, 85 μM
[4] = male, Sprague-Dawley, rat, 60 min, 850 μM
[5] = male, Sprague-Dawley, rat, inhibition rate on the metabolism of nalbuphine in microsome
[6] = Table 2, inhibitor 8.5 μM, metabolism of nalbuphine in rat liver microsome
[7] = Table 2, inhibitor 85 μM, metabolism of nalbuphine in rat liver microsome
[8] = Table 2, inhibitor 850 μM, metabolism of nalbuphine in rat liver microsome
[9] = Table 6, enhancer 8.5 μM, negative = enhancement
[10] = Table 6, enhancer 85 μM, negative = enhancement
[11] = Table 6, enhancer 850 μM, negative = enhancement

inhibition at 60 min, 8.5 μM [1]	inhibition at 60 min, 85 μM [1]	inhibition at 60 min, 850 μM [1]	inhibition at 60 min, 8.5 µM [1]	inhibition at 60 min, 85 µM [1]	inhibition at 60 min, 850 µM [1]	SMILES	also measured
-68.4 ± 7.34%	-54.8 ± 9.38%	-65.3 ± 47%				Oc1cc(O)c2c(c1)OC(c1ccc(O)c(O)c1)[C@@H](O)C2 (single isomer, unassigned; (+)) [(+)-catechin, (+)-Catechin]	
						Oc1cc(O)c2c(c1)OC(c1ccc(O)c(O)c1)[C@@H](O)C2 (single isomer, unassigned; (+)) [(+)-epicatechin, (+)-Epicatechin]	% Inhibition (Mean ± SD) [2]: −32.553 ± 1.578%; % Inhibition (Mean ± SD) [3]: −47.075 ± 0.533%; % Inhibition (Mean ± SD) [4]: −8.118 ± 1.256%
			18.3 ± 0.793%	45.3 ± 7.84%	44.2 ± 2.28%	C=C(C)C1CC=C(C)CC1 (single isomer, unassigned; (+)) [(+)-limonene, (+)-Limonene]	inhibition at 60 min [5]: ≥ 30%
						Oc1cc(O)c2c(c1)OC(c1ccc(O)c(O)c1)[C@@H](O)C2 (single isomer, unassigned; (-)) [(−)-epicatechin, (−)-Epicatechin]	% Inhibition (Mean ± SD) [2]: −28.68 ± 17.634%; % Inhibition (Mean ± SD) [3]: −23.53 ± 27.304%; % Inhibition (Mean ± SD) [4]: −48.35 ± 39.354%
-26.3 ± 27.3%	17.3 ± 5.84%	2.39 ± 22.5%	-26.3 ± 27.3%	17.3 ± 5.84%	2.39 ± 22.5%	CC(=O)OCCCc1ccccc1 [3-phenylpropyl acetate, 3-Phenylpropyl Acetate]	
-26.7 ± 13.1%	54 ± 15.8%	-16.1 ± 17.9%	-26.7 ± 13.1%	54 ± 15.8%	-16.1 ± 17.9%	O=c1cc(-c2ccc(O)cc2)oc2cc(O)cc(O)c12 [apigenin, Apigenin]	
-99.6 ± 12.8%	-125 ± 8.62%					O=c1cc(-c2ccccc2)oc2cc(O)c(O)c(O)c12 [baicalein]	inhibition at 60 min, 212.5 μM [1]: -146 ± 8.47%
						O=C(O)[C@H]1O[C@@H](Oc2cc3oc(-c4ccccc4)cc(=O)c3c(O)c2O)[C@H](O)[C@@H](O)[C@@H]1O [baicalin]	% Inhibition (Mean ± SD) [6]: 36.298 ± 9.403%; % Inhibition (Mean ± SD) [7]: 46.253 ± 22.923%; % Inhibition (Mean ± SD) [8]: 44.262 ± 2.879%
			111 ± 21.8%	105 ± 21.8%	105 ± 19.3%	COc1c(O)cc2oc(Oc3ccc(O)cc3)cc(=O)c2c1O [capillarisin, Capillarisin]	inhibition at 60 min [5]: 111%
-8.41 ± 18.6%	-12.1 ± 6.68%	58.9 ± 8.56%	-8.41 ± 18.6%	-12.1 ± 6.68%	58.9 ± 8.56%	CC12CCC(CC1)C(C)(C)O2 [cineole, Cineole]	
-128 ± 20.8%	-138 ± 4.62%					O=c1c(-c2ccc(O)cc2)coc2cc(O)ccc12 [daidzein, Daidzein]	inhibition at 60 min, 425 μM [1]: -138 ± 2.31%
						O=c1c(-c2ccc(O)cc2)coc2cc(O[C@@H]3O[C@H](CO)[C@@H](O)[C@H](O)[C@H]3O)ccc12 [daidzin, Daidzin]	inhibition at 60 min, 8.5 μM (male, Sprague-Dawley, rat): -29.5 ± 22%; inhibition at 60 min, 85 μM (male, Sprague-Dawley, rat): -41.5 ± 17%; inhibition at 60 min, 850 μM (male, Sprague-Dawley, rat): -61 ± 21.1%
						CC(C)[C@@H](C)/C=C/[C@@H](C)[C@H]1CC[C@H]2C3=CC=C4C[C@@H](O)CC[C@]4(C)[C@H]3CC[C@]12C [ergosterol, Ergosterol]	inhibition at 60 min, 8.5 μM (male, Sprague-Dawley, rat, liver microsomes, probe nalbuphine, % Inhibition (Mean ± SD), Table 6, enhancer 8.5 μM, negative = enhancement): -12.5 ± 28.9%; inhibition at 60 min, 85 μM (male, Sprague-Dawley, rat, liver microsomes, probe nalbuphine, % Inhibition (Mean ± SD), Table 6, enhancer 85 μM, negative = enhancement): -28.3 ± 20.3%; inhibition at 60 min, 850 μM (male, Sprague-Dawley, rat, liver microsomes, probe nalbuphine, % Inhibition (Mean ± SD), Table 6, enhancer 850 μM, negative = enhancement): -34.6 ± 19.9%
-1.06 ± 3.71%	-17.1 ± 2.3%	14.1 ± 2.88%	-1.06 ± 3.71%	-17.1 ± 2.3%	14.1 ± 2.88%	O=C1CC(c2ccc(O)c(O)c2)Oc2cc(O)cc(O)c21 (centres unmarked) [eriodictyol, Eriodictyol]	inhibition at 60 min [5]: ≥ 30%
-27.8 ± 14.7%	-12.1 ± 5.71%	6.33 ± 1.48%	-27.8 ± 14.7%	-12.1 ± 5.71%	6.33 ± 1.48%	CCCCCCCCCCCCCC(=O)OCC [ethyl myristate, Ethyl Myristate]	
-86.5 ± 3.49%	-31.5 ± 4.78%	-24.7 ± 4.42%				COc1ccc(-c2coc3cc(O)ccc3c2=O)cc1 [formononetin, Formononetin]	
			15.8 ± 4.42%	8.05 ± 3.02%	12.2 ± 4.08%	O=C(O)c1cc(O)c(O)c(O)c1 [gallic acid, Gallic Acid]	
						O=c1c(-c2ccc(O)cc2)coc2cc(O)cc(O)c12 [genistein, Genistein]	inhibition at 60 min, 8.5 µM (male, Sprague-Dawley, rat): 15.6 ± 6.05%; inhibition at 60 min, 8.5 μM (male, Sprague-Dawley, rat): 15.6 ± 6.05%; inhibition at 60 min, 85 µM (male, Sprague-Dawley, rat): 5.73 ± 6.41%; inhibition at 60 min, 85 μM (male, Sprague-Dawley, rat): 5.73 ± 6.41%; inhibition at 60 min, 850 µM (male, Sprague-Dawley, rat): -9.2 ± 5.18%; inhibition at 60 min, 850 μM (male, Sprague-Dawley, rat): -9.2 ± 5.18%
-27 ± 4.51%	-77.7 ± 20.7%	-43.2 ± 18.8%				COc1cc(O)c2c(=O)cc(-c3ccc(O)cc3)oc2c1 [genkwanin]	
9.93 ± 6.66%	-20.3 ± 3.67%	-5.65 ± 6.62%	9.93 ± 6.66%	-20.3 ± 3.67%	-5.65 ± 6.62%	CC1(C)[C@@H](O[C@H]2O[C@H](C(=O)O)[C@@H](O)[C@H](O)[C@H]2O[C@@H]2O[C@H](C(=O)O)[C@@H](O)[C@H](O)[C@H]2O)CC[C@]2(C)[C@H]3C(=O)C=C4[C@@H]5C[C@@](C)(C(=O)O)CC[C@]5(C)CC[C@@]4(C)[C@]3(C)CC[C@@H]12 [glycyrrhizin, Glycyrrhizin]	
51.7 ± 21.7%	-59.1 ± 18.9%	-124 ± 49.4%	51.7 ± 21.7%	-59.1 ± 18.9%	-124 ± 49.4%	COc1ccc(C2CC(=O)c3c(O)cc(O)cc3O2)cc1O (centres unmarked) [hesperetin, Hesperetin]	inhibition at 60 min [5]: ≥ 30%
2.16 ± 2.73%	-32 ± 10.3%	-42 ± 4.25%				COc1ccc([C@@H]2CC(=O)c3c(O)cc(O[C@@H]4O[C@H](CO[C@@H]5O[C@@H](C)[C@H](O)[C@@H](O)[C@H]5O)[C@@H](O)[C@H](O)[C@H]4O)cc3O2)cc1O [hesperidin, Hesperidin]	
						O=c1cc(-c2ccc(O)c(O)c2)oc2cc(O)c([C@@H]3O[C@H](CO)[C@@H](O)[C@H](O)[C@H]3O)c(O)c12 [homoorientin, Homoorientin]	% Inhibition (Mean ± SD) [9]: −128.53 ± 27.613%; % Inhibition (Mean ± SD) [10]: −127.21 ± 28.005%; % Inhibition (Mean ± SD) [11]: −133.17 ± 26.968%
						O=c1c(O[C@@H]2O[C@H](CO)[C@@H](O)[C@H](O)[C@H]2O)c(-c2ccc(O)c(O)c2)oc2cc(O)cc(O)c12 [isoquercitrin, Isoquercitrin]	% Inhibition (Mean ± SD) [9]: −8.089 ± 2.404%; % Inhibition (Mean ± SD) [10]: −19.119 ± 21.887%; % Inhibition (Mean ± SD) [11]: −71.696 ± 20.468%
						COc1cc(-c2oc3cc(O)cc(O)c3c(=O)c2O)ccc1O [isorhamnetin, Isorhamnetin]	inhibition at 60 min (male, Sprague-Dawley, rat): ≥ 30%; inhibition at 60 min, 8.5 µM (male, Sprague-Dawley, rat): 88.4 ± 11.6%; inhibition at 60 min, 85 µM (male, Sprague-Dawley, rat): 85.1 ± 14.7%; inhibition at 60 min, 850 µM (male, Sprague-Dawley, rat): 107 ± 8.1%
						O=c1cc(-c2ccc(O)cc2)oc2cc(O)c([C@@H]3O[C@H](CO)[C@@H](O)[C@H](O)[C@H]3O)c(O)c12 [isovitexin, Isovitexin]	% Inhibition (Mean ± SD) [6]: 29.821 ± 9.786%; % Inhibition (Mean ± SD) [7]: −5.528 ± 9.096%; % Inhibition (Mean ± SD) [8]: −12.377 ± 8.912%; % Inhibition (Mean ± SD) [9]: 29.821 ± 9.786%; % Inhibition (Mean ± SD) [10]: −5.528 ± 9.096%; % Inhibition (Mean ± SD) [11]: −12.377 ± 8.912%
